Assay results as given in patent US20240165231A1, “CAR-T DELIVERY OF SYNTHETIC PEPTIDE THERAPEUTICS” (THE TRUSTEES OF THE UNIVERSITY OF PENNSYLVANIA, priority 2021, published 2024).
“Also recorded” adds a separate entry of the source.

How the values were obtained:
STING [1] = test: BMDC stimulation with liposome-encapsulated STING peptides, CD86 as surrogate for STING activity; assay type: cell-based, mouse; conditions: peptides in liposomes, 48 hours, flow cytometry
Description: Six cGAMP mimetic peptides (also referred to herein as STING peptides) were selected to test for activity. […] BDMCs were prepared by harvesting bone marrow from mouse hindlimbs and culturing in media (RPMI+10% FBS in 30 ng/mL GM-CSF) for 4 days. BMDCs were then stimulated with potential STING agonist peptides encapsulated in liposomes (Lipofectamine 2000) and returned to culture with GM-CSF for 48 hours. BMDCs were then evaluated for expression of CD86 by flow cytometry as a surrogate for STING activity. A schematic of the study design is provided in the left panel of FIG. 15.

TSA breast cancer cells = test: PD-L1 as readout of DNA damage response after liposomal PARPi mimetic peptides; assay type: cell-based; conditions: peptides in liposomes, 48 hours, flow cytometry
Description: PARP inhibitor peptides were computationally designed using methods as described in Example 2. Resulting PARP inhibitor (PARPi) mimetic peptides were encapsulated in liposomes and transfected into TSA breast cancer cells in vitro. 48 hours later, PD-L1 was assessed by flow cytometry as a readout of a DNA damage response. […] The PARP inhibitor olaparib was used as a positive control. […] In embodiments, the PARPi mimetic peptides may be introduced into a CAR construct for delivery to the tumor microenvironment via an engineered CAR-T cell.

STING [2] = test: ST2-stimulated, Ova-loaded BMDCs (WT or STING KO) co-cultured with OT-I T cells; assay type: cell-based, mouse; conditions: for OT-I T cell Granzyme B / OT-I T cell IFNγ / OT-I T cell Ki67: 48 hours
Description: Activity of the STING agonist peptide ST2 was further characterized. BMDCs from wild type (WT) or STING knock-out (KO) mice were prepared as described above. Following stimulation with ST2, cells were loaded with Ova (SIINFEKL) peptide and then extensively washed to remove residual peptide. OT-I T cells specific for the Ova peptide were then added to BMDC cultures to assess DC activity and ability to stimulate CD8 T cell responses. OT-I T cell expression of Granzyme B (an indicator of cell killing activity), Ki67 (an indicator of cell proliferation), and IFNγ were assessed by flow cytometry 48 hours later.

B16 cells = test: Cell death after liposomal SMACm6 with or without TNF; assay type: cell-based
Description: SMAC peptides were generated using a rational design strategy. Peptides with the best binding and potency (as measured by induction of cell death) in a dose response assay were selected for testing. SMAC mimetic peptide compositions were encapsulated in liposomes and transfected into B16 or KP (lung adenocarcinoma) cells in vitro at various concentrations in the presence of 20 ng/mL of TNF. 24 hours later, cell death was assessed by flow cytometry. Peptide 6 (SMACm6; SEQ ID NO: 8) was selected for further analysis based on dose response in multiple cell lines.
The SMACm6 mimetic peptides were encapsulated in liposomes and transfected into B16 or KP cells in vitro at various concentrations with or without 20 ng/mL TNF.

| Substance | CD86 expression in BMDCs (STING [1]) | PD-L1 expression (TSA breast cancer cells) | further results |
| --- | --- | --- | --- |
| MFEYG [ST4] | increased CD86 expression in BMDCs at statistically significant levels over negative control |  |  |
| LFIKP [ST5] | increased CD86 expression in BMDCs at statistically significant levels over negative control |  |  |
| APLGG [Pep2] |  | increased PD-L1 expression |  |
| IFEFPG [ST1] | increased CD86 expression in BMDCs at statistically significant levels over negative control |  |  |
| LFILSG [ST2] | increased CD86 expression in BMDCs at statistically significant levels over negative control; also recorded: highest CD86 expression of the peptides tested |  | OT-I T cell Granzyme B (STING [2]; STING KO BMDCs): not significantly increased over liposome-only controls; OT-I T cell IFNγ (STING [2]; STING KO BMDCs): not significantly increased over liposome-only controls; OT-I T cell Ki67 (STING [2]; STING KO BMDCs): not significantly increased over liposome-only controls; OT-I T cell Granzyme B (STING [2]; WT BMDCs): significantly increased; OT-I T cell IFNγ (STING [2]; WT BMDCs): significantly increased; OT-I T cell Ki67 (STING [2]; WT BMDCs): significantly increased; STING dependence of T cell activation (STING [2]; WT versus STING KO): requires the STING pathway; also recorded: STING dependent |
| AVPIGGGGGGGGGGGGGGGIPVA [SMACm6] |  |  | relative cell death (B16 cells; absence of TNF): no cell death was observed; relative cell death (B16 cells; presence of 20 ng/mL TNF, increasing concentrations): increasing relative cell death; TNF dependence of cell death induction (B16 cells; presence or absence of TNF): dependent on TNF signaling |
| APLPP [Pep1] |  | increased PD-L1 expression |  |
| CAPLPPC [Pep1C] |  | increased PD-L1 expression |  |
| CIFEFPGC [ST1C] | increased CD86 expression in BMDCs at statistically significant levels over negative control |  |  |
| VPHPP [Pep3] |  | increased PD-L1 expression |  |
| TFEYSG [ST3] | increased CD86 expression in BMDCs at statistically significant levels over negative control |  |  |
